Experimental data: the NIST ThermoML archive (doi:10.1016/j.tca.2018.11.018)
± gives the expanded uncertainty stated by the source.

Experiment: xn = mol fraction of the nth substance listed
Details: 100 kPa, Liquid; for viscosity: Falling or rolling sphere viscometry; for mass density: Vibrating tube method

CC[N+]1(C)CCCCC1.[Br-] [N-ethyl-N-methylpiperidinium bromide] + O
Details | mass density [kg/m3] | viscosity [mPa·s]
298.15 K, x1 = 0.02 | 1042.3 ± 1 | 1.263 ± 0.076
298.15 K, x1 = 0.046 | 1088.3 ± 1 | 2.026 ± 0.12
298.15 K, x1 = 0.065 | 1116.9 ± 1 | 2.813 ± 0.17
298.15 K, x1 = 0.085 | 1141.4 ± 1 | 3.992 ± 0.24
298.15 K, x1 = 0.11 | 1167.4 ± 1.1 | 6.16 ± 0.37
298.15 K, x1 = 0.14 | 1192.2 ± 1.1 | 11.35 ± 0.69
298.15 K, x1 = 0.18 | 1217.8 ± 1.1 | 20.55 ± 1.2
298.15 K, x1 = 0.221 | 1237.8 ± 1.2 | 36.06 ± 2.2
298.15 K, x1 = 0.27 | 1255.2 ± 1.3 | 68.76 ± 4.2
298.15 K, x1 = 0.321 | 1268.9 ± 1.5 | 135.3 ± 9.2
303.15 K, x1 = 0.02 | 1040.5 ± 1 | 1.124 ± 0.068
303.15 K, x1 = 0.046 | 1085.9 ± 1 | 1.783 ± 0.11
303.15 K, x1 = 0.065 | 1114.2 ± 1 | 2.444 ± 0.15
303.15 K, x1 = 0.085 | 1138.5 ± 1 | 3.419 ± 0.21
303.15 K, x1 = 0.11 | 1164.3 ± 1.1 | 5.175 ± 0.31
303.15 K, x1 = 0.14 | 1189 ± 1.1 | 9.449 ± 0.57
303.15 K, x1 = 0.18 | 1214.4 ± 1.1 | 16.67 ± 1
303.15 K, x1 = 0.221 | 1234.4 ± 1.2 | 28.38 ± 1.7
303.15 K, x1 = 0.27 | 1251.8 ± 1.3 | 51.92 ± 3.1
303.15 K, x1 = 0.321 | 1265.5 ± 1.4 | 98.65 ± 6.3
308.15 K, x1 = 0.02 | 1038.6 ± 1 | 1.011 ± 0.061
308.15 K, x1 = 0.046 | 1083.5 ± 1 | 1.59 ± 0.096
308.15 K, x1 = 0.065 | 1111.5 ± 1 | 2.147 ± 0.13
308.15 K, x1 = 0.085 | 1135.5 ± 1 | 2.967 ± 0.18
308.15 K, x1 = 0.11 | 1161.2 ± 1.1 | 4.41 ± 0.27
308.15 K, x1 = 0.14 | 1185.7 ± 1.1 | 7.861 ± 0.48
308.15 K, x1 = 0.18 | 1211 ± 1.1 | 13.6 ± 0.82
308.15 K, x1 = 0.221 | 1230.9 ± 1.2 | 22.48 ± 1.4
308.15 K, x1 = 0.27 | 1248.4 ± 1.3 | 39.91 ± 2.4
308.15 K, x1 = 0.321 | 1262.1 ± 1.4 | 73.14 ± 4.5
313.15 K, x1 = 0.02 | 1036.4 ± 1 | 0.915 ± 0.055
313.15 K, x1 = 0.046 | 1081.1 ± 1 | 1.421 ± 0.086
313.15 K, x1 = 0.065 | 1108.7 ± 1 | 1.901 ± 0.12
313.15 K, x1 = 0.085 | 1132.5 ± 1 | 2.595 ± 0.16
313.15 K, x1 = 0.11 | 1158 ± 1 | 3.8 ± 0.23
313.15 K, x1 = 0.14 | 1182.3 ± 1.1 | 6.584 ± 0.4
313.15 K, x1 = 0.18 | 1207.5 ± 1.1 | 11.17 ± 0.68
313.15 K, x1 = 0.221 | 1227.4 ± 1.2 | 18.06 ± 1.1
313.15 K, x1 = 0.27 | 1244.9 ± 1.3 | 31 ± 1.9
313.15 K, x1 = 0.321 | 1258.6 ± 1.4 | 54.37 ± 3.3
318.15 K, x1 = 0.02 | 1034.1 ± 1 | 0.834 ± 0.05
318.15 K, x1 = 0.046 | 1078.7 ± 1 | 1.279 ± 0.077
318.15 K, x1 = 0.065 | 1105.9 ± 1 | 1.697 ± 0.1
318.15 K, x1 = 0.085 | 1129.5 ± 1 | 2.287 ± 0.14
318.15 K, x1 = 0.11 | 1154.8 ± 1 | 3.301 ± 0.2
318.15 K, x1 = 0.14 | 1178.9 ± 1.1 | 5.574 ± 0.34
318.15 K, x1 = 0.18 | 1204.1 ± 1.1 | 9.251 ± 0.56
318.15 K, x1 = 0.221 | 1223.9 ± 1.2 | 14.7 ± 0.89
318.15 K, x1 = 0.27 | 1241.4 ± 1.3 | 24.63 ± 1.5
318.15 K, x1 = 0.321 | 1255.2 ± 1.4 | 42.07 ± 2.6
323.15 K, x1 = 0.02 | – | 0.767 ± 0.046
323.15 K, x1 = 0.046 | – | 1.162 ± 0.07
323.15 K, x1 = 0.065 | – | 1.522 ± 0.092
323.15 K, x1 = 0.085 | – | 2.045 ± 0.12
323.15 K, x1 = 0.11 | – | 2.895 ± 0.17
323.15 K, x1 = 0.14 | – | 4.742 ± 0.29
323.15 K, x1 = 0.18 | – | 7.76 ± 0.47
323.15 K, x1 = 0.221 | – | 12.15 ± 0.74
323.15 K, x1 = 0.27 | – | 19.99 ± 1.2
323.15 K, x1 = 0.321 | – | 33.03 ± 2
